Where a name gives a salt, the structure may show the parent alone.
molecular target: T1, recombinant guanylate cyclase reporter cell line (Rattus norvegicus, UniProt P19686+P20595); test: Action on recombinant guanylate cyclase reporter cell line; assay type: cell-based; details: in some cases mean values from individual determinations
T1 construct: expressed in transfected cells; host or cells: recombinant reporter cell line
T1 sequence (P19686 1-690): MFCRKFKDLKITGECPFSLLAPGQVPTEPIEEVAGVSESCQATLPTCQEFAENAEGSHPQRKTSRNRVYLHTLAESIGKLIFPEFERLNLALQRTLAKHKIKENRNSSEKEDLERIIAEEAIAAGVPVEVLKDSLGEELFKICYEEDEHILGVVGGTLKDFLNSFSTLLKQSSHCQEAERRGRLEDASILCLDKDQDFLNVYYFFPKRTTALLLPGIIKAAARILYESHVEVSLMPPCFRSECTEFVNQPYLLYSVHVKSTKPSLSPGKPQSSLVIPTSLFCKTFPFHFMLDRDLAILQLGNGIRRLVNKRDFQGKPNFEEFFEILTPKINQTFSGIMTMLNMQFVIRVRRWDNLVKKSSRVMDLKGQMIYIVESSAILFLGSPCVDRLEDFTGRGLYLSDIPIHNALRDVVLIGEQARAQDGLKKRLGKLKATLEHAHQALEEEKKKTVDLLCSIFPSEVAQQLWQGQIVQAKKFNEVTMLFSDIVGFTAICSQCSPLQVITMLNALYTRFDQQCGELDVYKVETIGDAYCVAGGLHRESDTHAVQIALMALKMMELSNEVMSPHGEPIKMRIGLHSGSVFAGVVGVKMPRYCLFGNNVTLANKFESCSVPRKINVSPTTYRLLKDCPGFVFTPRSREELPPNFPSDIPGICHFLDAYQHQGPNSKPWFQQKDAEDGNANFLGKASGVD
T1 sequence (P20595 1-619): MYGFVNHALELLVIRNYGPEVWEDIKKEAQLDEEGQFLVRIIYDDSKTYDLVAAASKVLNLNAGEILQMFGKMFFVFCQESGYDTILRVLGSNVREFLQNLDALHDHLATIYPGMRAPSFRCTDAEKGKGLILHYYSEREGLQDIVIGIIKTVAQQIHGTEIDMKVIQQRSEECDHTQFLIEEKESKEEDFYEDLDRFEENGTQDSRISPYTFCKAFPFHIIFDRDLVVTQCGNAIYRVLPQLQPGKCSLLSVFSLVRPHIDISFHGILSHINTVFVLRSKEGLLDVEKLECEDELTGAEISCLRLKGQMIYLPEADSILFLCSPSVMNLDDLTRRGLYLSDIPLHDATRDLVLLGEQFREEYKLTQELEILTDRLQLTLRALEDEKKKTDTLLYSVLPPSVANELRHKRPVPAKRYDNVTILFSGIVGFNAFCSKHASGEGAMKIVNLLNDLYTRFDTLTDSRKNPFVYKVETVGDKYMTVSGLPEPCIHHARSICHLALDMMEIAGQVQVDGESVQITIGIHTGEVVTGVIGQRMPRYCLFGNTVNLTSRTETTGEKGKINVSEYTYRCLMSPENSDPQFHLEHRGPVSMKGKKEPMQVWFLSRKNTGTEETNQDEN
Summary of the method: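 Whole-cell reporter assay with recombinant guanylate cyclase; endpoint = minimal effective concentration.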

SMILES	MEC (minimal effective concentration)
CCCC(C)(N)CNC(=O)c1c(C)nc2c(OCc3cccc(C)c3F)cc(C)cn12 (racemic) [Example 317, rac-N-(2-amino-2-methylpentyl)-8-[(2-fluoro-3-methylbenzyl)oxy]-2,6-dimethylimidazo[1,2-a]pyridine-3-carboxamide]	0.30 µM
Cc1nc2c(OCc3c(F)cccc3F)cc(Cl)cn2c1C(=O)NCCC1(N)CCCCC1 [Example 33, N-[2-(1-Aminocyclohexyl)ethyl]-6-chloro-8-[(2,6-difluorobenzyl)oxy]-2-methylimidazo[1,2-a]-pyridine-3-carboxamide]	0.30 µM
Cc1cc(OCCC(C)C)c2nc(C)c(C(=O)NCC(C)(N)CC(C)C)n2c1 (racemic) [Example 249, rac-N-(2-Amino-2,4-dimethylpentyl)-2,6-dimethyl-8-(3-methylbutoxyl)imidazo[1,2-a]pyridine-3-carboxamide]	1.00 µM
Cc1nc2c(OCc3c(F)cccc3F)cccn2c1C(=O)NC(CN)COc1ccc(F)cc1 (racemic) [Example 58, rac-N-[1-amino-3-(4-fluorophenoxy)propan-2-yl]-8-[(2,6-difluorobenzyl)oxy]-2-methylimidazo[1,2-a]pyridine-3-carboxamide]	1.00 µM
CCCC(C)(N)CNC(=O)c1c(C)nc2c(OCc3c(F)cccc3F)cc(C)cn12 (single isomer, unassigned) [Example 234, ent-N-(2-Amino-2-methylpentyl)-8-[(2,6-difluorobenzyl)oxy]-2,6-dimethylimidazo[1,2-a]pyridine-3-carboxamide]	0.03 µM
Cc1nc2c(OCc3c(F)cccc3F)cccn2c1C(=O)NCCNCC(F)F [Example 169]	1.65 µM
Cc1nc2c(OCc3c(F)cccc3F)cccn2c1C(=O)NCC(C)(N)CO (racemic) [Example 273, rac-N-(2-Amino-3-hydroxy-2-methylpropyl)-8-[(2,6-difluorobenzyl)oxy]-2-methylimidazo[1,2-a]-pyridine-3-carboxamide]	1.00 µM
Cc1cc(OCc2c(F)cccc2F)c2nc(C)c(C(=O)NC[C@@H]3CCCN3)n2c1 [Example 115, 8-[(2,6-difluorobenzyl)oxy]-2,6-dimethyl-N-[(2S)-pyrrolidin-2-ylmethyl]imidazo[1,2-a]-pyridine-3-carboxamide]	1.00 µM
Cc1cc(OCc2c(F)cccc2F)c2nc(C)c(C(=O)NCC(C)(N)COc3ccc(F)c(F)c3)n2c1 (racemic) [Example 350, rac-N-[2-amino-3-(3,4-difluorophenoxy)-2-methylpropyl]-8-[(2,6-difluorobenzyl)oxy]-2,6-dimethylimidazo[1,2-a]pyridine-3-carboxamide]	1.00 µM
Cc1cc(OCc2c(F)cccc2F)c2nc(C)c(C(=O)NC34CCC3CNC4)n2c1 (racemic) [Example 346, rac-N-(3-azabicyclo[3.2.0]hept-1-yl)-8-[(2,6-difluorobenzyl)oxy]-2,6-dimethylimidazo[1,2-a]pyridine-3-carboxamide]	1.00 µM
Cc1nc2c(OCC3CCCCC3)cccn2c1C(=O)NC(CN)c1ccc(F)cc1F (stereo not drawn) [Example 45, ent-N-[2-Amino-1-(2,4-difluorophenyl)ethyl]-8-(cyclohexylmethoxy)-2-methylimidazo[1,2-a]-pyridine-3-carboxamide]	1.00 µM
CCCC(C)(N)CNC(=O)c1c(C)nc2c(OCc3ccccc3)cc(C)cn12 (racemic) [Example 340, rac-N-(2-amino-2-methylpentyl)-8-(benzyloxy)-2,6-dimethylimidazo[1,2-a]pyridine-3-carboxamide]	1.00 µM
Cc1nc2c(OCc3c(F)cccc3F)cccn2c1C(=O)NC(CN)c1ccc(F)c(F)c1 (single isomer, unassigned; enantiomer a) [Example 12, ent-N-[2-Amino-1-(3,4-difluorophenyl)ethyl]-8-[(2,6-difluorobenzyl)oxy]-2-methylimidazo[1,2-a]-pyridine-3-carboxamide (Enantiomer A)]	1.00 µM
Cc1nc2c(OCc3c(F)cccc3F)cccn2c1C(=O)NC(CN)COC(C)C (racemic) [Example 63, rac-N-(1-Amino-3-isopropoxypropan-2-yl)-8-[(2,6-difluorobenzyl)oxy]-2-methylimidazo[1,2-a]-pyridine-3-carboxamide]	0.30 µM
Cc1nc2c(OCc3c(F)cccc3F)cccn2c1C(=O)NC1CNc2ccccc21 (single isomer, unassigned; ent-8) [Example 47, ent-8-[(2,6-Difluorobenzyl)oxy]-N-(2,3-dihydro-1H-indol-3-yl)-2-methylimidazo[1,2-a]pyridine-3-carboxamide]	0.30 µM
Cc1nc2c(OCc3c(F)cccc3F)cccn2c1C(=O)NCCCN(C)C [Example 87, 8-[(2,6-difluorobenzyl)oxy]-N-[3-(dimethyl-amino)propyl]-2-methylimidazo[1,2-a]-pyridine-3-carboxamide]	1.00 µM
Cc1cc(OCc2c(F)cccc2F)c2nc(C)c(C(=O)NC34CC5CC(CC(N)(C5)C3)C4)n2c1 [Example 365, N-(3-aminoadamantan-1-yl)-8-[(2,6-difluorobenzyl)oxy]-2,6-dimethylimidazo[1,2-a]pyridine-3-carboxamide Formate]	1.00 µM
COCC(C)(N)CNC(=O)c1c(C)nc2c(OCc3c(F)cccc3F)cc(C)cn12 (racemic) [Example 166, rac-N-(2-amino-3-methoxy-2-methylpropyl)-8-[(2,6-difluorobenzyl)oxy]-2,6-dimethylimidazo[1,2-a]pyridine-3-carboxamide]	0.30 µM
CCCC(C)(N)CNC(=O)c1c(C)nc2c(OCc3c(F)cccc3F)cc(C)cn12 (single isomer, unassigned) [Example 233, ent-N-(2-Amino-2-methylpentyl)-8-[(2,6-difluorobenzyl)oxy]-2,6-dimethylimidazo[1,2-a]pyridine-3-carboxamide]	0.10 µM
CCCC(C)(N)CNC(=O)c1c(C)nc2c(OCc3c(F)cccc3F)cc(Cl)cn12 (racemic) [Example 244, rac-N-(2-Amino-2-methylpentyl)-6-chloro-8-[(2,6-difluorobenzyl)oxy]-2-methylimidazo[1,2-a]-pyridine-3-carboxamide]	0.30 µM
Cc1nc2c(OCc3c(F)cccc3F)cccn2c1C(=O)NCC(C)(C)N [Example 72, N-(2-Amino-2-methylpropyl)-8-[(2,6-difluorobenzyl)oxy]-2-methylimidazo[1,2-a]pyridine-3-carboxamide]	0.30 µM
Cc1cc(OCc2c(F)cccc2F)c2nc(C)c(C(=O)NCC(C)(N)C3CC3)n2c1 (racemic) [Example 259, rac-N-(2-Amino-2-cyclopropylpropyl)-8-[(2,6-difluorobenzyl)oxy]-2,6-dimethylimidazo[1,2-a]-pyridine-3-carboxamide]	0.03 µM

Source: US20150274719A1, “AMINO-SUBSTITUTED IMIDAZO[1,2-A]PYRIDINECARBOXAMIDES AND THEIR USE” (BAYER PHARMA AKTIENGESELLSCHAFT, priority 2012, published 2015)
